# Data from patent EP3782997A1, “FUSED PYRIMIDINE COMPOUNDS AND PHARMACEUTICAL COMPOSITIONS THEREOF FOR THE TREATMENT OF FIBROTIC DISEASES” (Galapagos N.V., priority 2019, dated 2021).
# Target: hENPP2 (Homo sapiens, UniProt Q13822)
# Assay: Human ENPP2 (hENPP2) biochemical assay using LPC as substrate
# Details: 150 µM LPC (palmitoyl 16:0), 37°C for 30 min
# Procedure, shortened: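 IC50 came from compound series (top 50 µM, 1/3 steps) incubated 30 min at 37°C with 1 or 3 µg/mL final enzyme and palmitoyl LPC added at 150 µM, pH 8.5 Tris buffer with Ca2+. Choline output measured as quinoneimine dye at 555 nm via coupled oxidase/HRP/TOOS detection.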
row,SMILES,IC50 [nM]
1,"Cc1cc(C)cc(Nc2ncc3c(n2)CN(C2CCN(C(=O)c4cc5[nH]nnc5cc4F)CC2)C3)c1 [compound 79, [4-[2-(3,5-dimethylanilino)-5,7-dihydropyrrolo[3,4-d]pyrimidin-6-yl]-1-piperidyl]-(6-fluoro-3H-benzotriazol-5-yl)methanone]",0.01 to 100
2,"Cc1cc(C)cc(Nc2ncc3c(n2)CN(C2CN(C(=O)c4cc5[nH]nnc5cc4F)C2)C3)c1 [compound 80, [3-[2-(3,5-dimethylanilino)-5,7-dihydropyrrolo[3,4-d]pyrimidin-6-yl]azetidin-1-yl]-(6-fluoro-3H-benzotriazol-5-yl)methanone]",0.01 to 100
3,"COc1cc2[nH]nnc2cc1C(=O)N1CC(N2Cc3cnc(Nc4cc(C)cc(C)c4)nc3C2)C1 [compound 81, [3-[2-(3,5-dimethylanilino)-5,7-dihydropyrrolo[3,4-d]pyrimidin-6-yl]azetidin-1-yl]-(6-methoxy-1H-benzotriazol-5-yl)methanone]",0.01 to 100
4,"Cc1cc(C)cc(Nc2ncc3c(n2)CN(C2CN(C(=O)c4cc5nn[nH]c5cc4F)CC2C)C3)c1 (stereo not shown) [compound 82, [3-[2-(3,5-dimethylanilino)-5,7-dihydropyrrolo[3,4-d]pyrimidin-6-yl]-4-methyl-pyrrolidin-1-yl]-(6-fluoro-1H-benzotriazol-5-yl)methanone]",100 to 500
5,"COc1cc2[nH]nnc2cc1C(=O)N1CC(C)C(N2Cc3cnc(Nc4cc(C)cc(C)c4)nc3C2)C1 (stereo not shown) [compound 83, [3-[2-(3,5-dimethylanilino)-5,7-dihydropyrrolo[3,4-d]pyrimidin-6-yl] -4-methyl-pyrrolidin-1-yl]-(6-methoxy-1H-benzotriazol-5-yl)methanone]",100 to 500
6,"Cc1cc(C)cc(Nc2ncc3c(n2)CN(C2=C(C#N)CN(C(=O)c4ccc5nn[nH]c5c4)C2)C3)c1 [compound 85, 1-(3H-benzotriazole-5-carbonyl)-4-[2-(3,5-dimethylanilino)-5,7-dihydropyrrolo[3,4-d]pyrimidin-6-yl]-2,5-dihydropyrrole-3-carbonitrile]",100 to 500
7,"Cc1cc(C)cc(Nc2ncc3c(n2)CCN(C2CN(C(=O)c4ccc5nn[nH]c5c4)CC2C)C3)c1 (stereo not shown) [compound 87, 3H -benzotriazol-5-yl-[3-[2-(3,5-dimethylanilino)-7,8-dihydro-5H-pyrido[4,3-d]pyrimidin-6-yl] -4-methyl-pyrrolidin-1-yl]methanone]",0.01 to 100
8,"COc1cc2[nH]nnc2cc1C(=O)N1CC(C)C(N2CCc3nc(Nc4cc(C)cc(C)c4)ncc3C2)C1 (stereo not shown) [compound 88, [3-[2-(3,5-dimethylanilino)-7,8-dihydro-5H-pyrido[4,3-d]pyrimidin-6-yl]-4-methyl-pyrrolidin-1-yl]-(6-methoxy-1H-benzotriazol-5-yl)methanone]",0.01 to 100
9,"Cc1cc(C)cc(Nc2ncc3c(n2)CN([C@H]2CCN(C(=O)c4ccc5[nH]nnc5c4)[C@H](C)C2)C3)c1 [compound 92, 1H-benzotriazol-5-yl-[(2R,4S)-4-[2-(3,5-dimethylanilino)-5,7-dihydropyrrolo[3,4-d]pyrimidin-6-yl]-2-methyl-1-piperidyl]methanone]",0.01 to 100
10,"Cc1cc(C)cc(Nc2ncc3c(n2)CN([C@@H]2CCN(C(=O)c4ccc5[nH]nnc5c4)[C@@H](C)C2)C3)c1 [compound 93, 1H-benzotriazol-5-yl-[(2S,4R)-4-[2-(3,5-dimethylanilino)-5,7-dihydropyrrolo[3,4-d]pyrimidin-6-yl]-2-methyl-1-piperidyl]methanone]",0.01 to 100
11,"Cc1cc(C)cc(Nc2ncc3c(n2)CCCN(C2CN(C(=O)c4ccc5[nH]nnc5c4)C2)C3)c1 [compound 94, 1H-benzotriazol-5-yl-[3-[2-(3,5-dimethylanilino)-5,7,8,9-tetrahydropyrimido[5,4-c]azepin-6-yl]azetidin-1-yl]methanone]",> 1000
12,"Cc1cc(C)cc(Nc2ncc3c(n2)C(C)(C)N(C2CN(C(=O)c4ccc5[nH]nnc5c4)C2)C3)c1 [compound 95, 1H-benzotriazol-5-yl-[3-[2-(3,5-dimethylanilino)-7,7-dimethyl-5H-pyrrolo[3,4-d]pyrimidin-6-yl]azetidin-1-yl]methanone]",0.01 to 100
13,"Cc1cc(C)cc(Nc2ncc3c(n2)CCN([C@@H]2CCN(C(=O)c4ccc5[nH]nnc5c4)[C@H](C)C2)C3)c1 [compound 98, 1H-benzotriazol-5-yl-[(2R,4R)-4-[2-(3,5-dimethylanilino)-7,8-dihydro-5H-pyrido[4,3-d]pyrimidin-6-yl]-2-methyl-1-piperidyl]methanone]",100 to 500
14,"COc1cc2[nH]nnc2cc1C(=O)N1CC[C@@H](N2Cc3cnc(Nc4cc(C)cc(C)c4)nc3C2)C[C@H]1C [compound 105, [(2R,4R)-4-[2-(3,5-dimethylanilino)-5,7-dihydropyrrolo[3,4-d]pyrimidin-6-yl]-2-methyl-1-piperidyl]-(6-methoxy-1H-benzotriazol-5-yl)methanone]",0.01 to 100
15,"COc1cc2[nH]nnc2cc1C(=O)N1CCC(N2Cc3cnc(Nc4cc(C)cc(C)c4)nc3C2)CC1 [compound 106, [4-[2-(3,5-dimethylanilino)-5,7-dihydropyrrolo[3,4-d]pyrimidin-6-yl]-1-piperidyl]-(6-methoxy-1H-benzotriazol-5-yl)methanone]",0.01 to 100
16,"Cc1cc(C)cc(Nc2ncc3c(n2)CN(C2CCN(C(=O)c4ccc5[nH]nnc5c4)C(C(F)(F)F)C2)C3)c1 (stereo not shown) [compound 107, 1H-benzotriazol-5-yl-[4-[2-(3,5-dimethylanilino)-5,7-dihydropyrrolo[3,4-d]pyrimidin-6-yl]-2-(trifluoromethyl)-1-piperidyl]methanone]",0.01 to 100
17,"Cc1cc(C)cc(Nc2ncc3c(n2)CCN(C2CCN(C(=O)c4ccc5[nH]nnc5c4)CC2)CC3)c1 [compound 109, 1H-benzotriazol-5-yl-[4-[2-(3,5-dimethylanilino)-5,6,8,9-tetrahydropyrimido[4,5-d]azepin-7-yl]-1-piperidyl]methanone]",0.01 to 100
18,"COc1cc2[nH]nnc2cc1C(=O)N1CC[C@@H](N2Cc3cnc(Nc4cc(C)cc(C)c4)nc3C2)C[C@@H]1C [compound 112, [(2S,4R)-4-[2-(3,5-dimethylanilino)-5,7-dihydropyrrolo[3,4-d]pyrimidin-6-yl]-2-methyl-1-piperidyl]-(6-methoxy-1H-benzotriazol-5-yl)methanone]",0.01 to 100
19,"COc1cc2[nH]nnc2cc1C(=O)N1CC[C@H](N2Cc3cnc(Nc4cc(C)cc(C)c4)nc3C2)C[C@@H]1C [compound 113, [(2S,4S)-4-[2-(3,5-dimethylanilino)-5,7-dihydropyrrolo[3,4-d]pyrimidin-6-yl]-2-methyl-1-piperidyl]-(6-methoxy-1H-benzotriazol-5-yl)methanone]",0.01 to 100
20,"Cc1cc(C)cc(Nc2ncc3c(n2)CN(C2CC4CCC(C2)N4C(=O)c2ccc4[nH]nnc4c2)C3)c1 (stereo not shown) [compound 114, 1H-benzotriazol-5-yl-[3-[2-(3,5-dimethylanilino)-5,7-dihydropyrrolo[3,4-d]pyrimidin-6-yl]-8-azabicyclo[3.2.1]octan-8-yl]methanone]",100 to 500
21,"Cc1cc(C)cc(Nc2ncc3c(n2)CN([C@H]2CCN(C(=O)c4cc5nn[nH]c5cc4F)[C@H](C)C2)C3)c1 [compound 116, [(2R,4S)-4-[2-(3,5-dimethylanilino)-5,7-dihydropyrrolo[3,4-d]pyrimidin-6-yl]-2-methyl-1-piperidyl]-(6-fluoro-1H-benzotriazol-5-yl)methanone]",0.01 to 100
22,"COc1cc2[nH]nnc2cc1C(=O)N1CC[C@H](N2Cc3cnc(Nc4cc(C)cc(C)c4)nc3C2)C[C@H]1C [compound 120, [(2R,4S)-4-[2-(3,5-dimethylanilino)-5,7-dihydropyrrolo[3,4-d]pyrimidin-6-yl]-2-methyl-1-piperidyl]-(6-methoxy-1H-benzotriazol-5-yl)methanone]",0.01 to 100
23,"Cc1cc(C)cc(Nc2ncc3c(n2)CN([C@H]2CCN(C(=O)c4cccc(-c5nnn[nH]5)c4)[C@@H](C)C2)C3)c1 [compound 123, [(2S,4S)-4-[2-(3,5-dimethylanilino)-5,7-dihydropyrrolo[3,4-d]pyrimidin-6-yl]-2-methyl-1-piperidyl]-[3-(1H-tetrazol-5-yl)phenyl]methanone]",> 1000
24,"COc1cc(Nc2ncc3c(n2)CN([C@@H]2CCN(C(=O)c4ccc5[nH]nnc5c4)[C@H](C)C2)C3)ccc1F [compound 126, 1H-benzotriazol-5-yl-[(2R,4R)-4-[2-(4-fluoro-3-methoxy-anilino)-5,7-dihydropyrrolo[3,4-d]pyrimidin-6-yl]-2-methyl-1-piperidyl]methanone]",0.01 to 100
25,"COc1cc(Nc2ncc3c(n2)CN([C@@H]2CCN(C(=O)c4ccc5[nH]nnc5c4)[C@H](C)C2)C3)cc(C(F)(F)F)c1 [compound 127, 1H-benzotriazol-5-yl-[(2R,4R)-4-[2-[3-methoxy-5-(trifluoromethyl)anilino]-5,7-dihydropyrrolo[3,4-d]pyrimidin-6-yl]-2-methyl-1-piperidyl]methanone]",0.01 to 100
26,"C[C@@H]1C[C@@H](N2Cc3cnc(Nc4cc(C#N)cc(C(F)(F)F)c4)nc3C2)CCN1C(=O)c1ccc2[nH]nnc2c1 [compound 128, 3-[[6-[(2R,4S)-1-(1H-benzotriazole-5-carbonyl)-2-methyl-4-piperidyl]-5,7-dihydropyrrolo[3,4-d]pyrimidin-2-yl]amino]-5-(trifluoromethyl)benzonitrile]",0.01 to 100
27,"C[C@@H]1C[C@H](N2Cc3cnc(Nc4cc(C(N)=O)cc(C(F)(F)F)c4)nc3C2)CCN1C(=O)c1ccc2[nH]nnc2c1 [compound 129, 3-[[6-[(2R,4R)-1-(1H-benzotriazole-5-carbonyl)-2-methyl-4-piperidyl]-5,7-dihydropyrrolo[3,4-d]pyrimidin-2-yl]amino]-5-(trifluoromethyl)benzamide]",0.01 to 100
28,"Cc1ccc(Nc2ncc3c(n2)CN([C@@H]2CCN(C(=O)c4ccc5[nH]nnc5c4)[C@H](C)C2)C3)cc1 [compound 134, 1H-benzotriazol-5-yl-[(2R,4R)-2-methyl-4-[2-(4-methylanilino)-5,7-dihydropyrrolo[3,4-d]pyrimidin-6-yl]-1-piperidyl]methanone]",0.01 to 100
